# Legend:
# MF CD34+ cells = assay: Colony forming assay (CFU-GM) of cultured MF CD34+ cells with IL-8; format: cell-based, human; details: co-treatment with reparixin, FIG. 5A
# Source text: FIGS. 5A, 5B. 5C, 5D, and 5E illustrate that a CXCR1/CXCR2 inhibitor reverses effects of IL-8 on MF CD34^+ cell colony formation. […] CFU-GM=colony-forming unit-granulocyte-macrophage. FIGS. 5B and 5C illustrate that IL-8 increased CFU-GM colony formation by MF CD34^+ cells in a dose dependent fashion and that the effects of IL-8 were inhibited by treatment with Ladx. FIG. 5B. Normal cells. FIG. 5C. MF cells. […] Con=control. IL-8 concentrations increase from left to right. […] P values were as follows: w/o Ladx: Con vs IL-8—10 ng: 0.159332; Con vs IL-8—20 ng: 0.011976; Con vs IL-8—50 ng: 0.00262; Con vs IL-8—100 ng: 0.00042; w/ 10 μM Ladx: Con vs Ladx: 0.315782; IL-8—10 ng vs plus Ladx: 0.295851; IL-8—20 ng vs plus Ladx: 0.077726; IL-8—50 ng vs plus Ladx: 0.031355; IL-8—100 ng vs plus Ladx: 0.081595.
# [1] = test system: MF CD34+ cells co-cultured with splenic EC; assay: Proliferation of MF CD34+ cells co-cultured with LCN2 treated splenic endothelial cells; format: cell-based, human; details: reparixin added to co-culture, FIG. 4B
# Source text: FIGS. 4A and 4B illustrate that addition of a CXCR1/CXCR2 inhibitor reverses effects of IL-8 on MF CD34^+ cells proliferation and lineage differentiation. FIG. 4A illustrates that IL-8 decreased the fraction of normal CD34^+, CD41^+, and CD33^+ cells, but increased the fraction of MF CD34^+, CD41^+, and CD33^+ cells. The effects of IL-8 were eliminated by the addition of the CXCR1/CXCR2 inhibitor ladarixin (Ladx). Normal CD34/CD41/CD33: left bars. MF CD34/CD41/CD33: Right bars. FIG. 4B illustrates that splenic endothelial cells (ECs) promote the proliferation of hematopoietic CD34^+ cells. Shown is fold change in CD34^+ cells cultured alone in the absence of cytokines and that the numbers are increased when the CD34^+ cells were co-cultured with LCN2 treated endothelial cells. The effects of co-cultivation with ECs were eliminated by addition of the CXCR1/CXCR2 antagonist reparixin (RPX).
# Similarly, while treatment with LCN2 enhances endothelial cell (EC)-mediated proliferation of MF cells, treatment with the CXCR1/CXCR2 inhibitor reparixin decreased MF CD34^+ proliferation when co-cultured with splenic EC (FIG. 4B).
structure (smiles),measurement,setting,value
"CC(C)Cc1ccc([C@@H](C)C(=O)NS(C)(=O)=O)cc1 [reparixin, R-(-)-2-(4-isobutylphenyl)-N-methanesulfonyl propionamide]",effect on IL-8 enhanced colony output of MF CD34+ cells,MF CD34+ cells,ameliorated
same,MF CD34+ proliferation when co-cultured with splenic EC,[1],decreased
